# Results as given in patent EP4722219A1 (Gan & Lee Pharmaceuticals Co., Ltd., priority 2023, dated 2024).
# Residue numbers refer to the chain shown, from its start.
# Key:
# Type in all cases: cell-based
# MCF-7 cells = experiment: Inhibition of cell proliferation in MCF-7 cells (CCK-8); settings: Homo sapiens, MCF7, 144 h, MCF-7 cell proliferation, 6 days treatment
# Procedure: Test Example 3 Inhibitory effect of PROTAC compounds provided by the present invention on cell proliferation in MCF-7 cells
# The complete culture medium required for MCF-7 cells (source ATCC) is DMEM (gibco, Product number: 11995-065) basal culture medium containing 10% fetal bovine serum. MCF-7 cells were seeded in 96-well plates at a density of 800 cells/well, and different concentrations of PROTAC compounds 1-55 provided in the examples of the present invention and positive control sample ARV-471 (source: Inokai) were prepared to treat the cells and incubated at 37 °C, 5% CO2 cell culture incubator for 6 days. According to the manufacturer's instructions, cell viability was detected using a CCK-8 kit (Beyotime, Product number: C0040). The IC50 of each PROTAC compound after treating for 6 days was calculated using GraphPadPrism software based on the inhibition rate. Table 3 Inhibition IC50 value of MCF-7 cell proliferation by PROTAC compounds of the present invention and positive control sample
# T-47D cells = experiment: Inhibition of cell proliferation in T-47D cells (CCK-8); settings: 6 days treatment, CCK-8 cell viability
# Procedure: Test Example 2 Inhibitory effect of PROTAC compounds provided by the present invention on cell proliferation in T-47D cells
# The complete culture medium required for T-47D cells is 1640 (ATCC, Product number: A10491-01) basal culture medium containing 10% fetal bovine serum. T-47D cells were seeded in 96-well plates at a density of 3,000 cells/well, and different concentrations of PROTAC compounds 1-55 provided in the examples of the present invention and positive control sample ARV-471 (source: Inokai) were prepared to treat the cells and incubated at 37 °C, 5% CO2 cell culture incubator for 6 days. According to the manufacturer's instructions, cell viability was detected using a CCK-8 kit (Beyotime, Product number: C0040). The IC50 of each compound after treating for 6 days was calculated using GraphPadPrism software based on the inhibition rate. Table 2 Inhibition IC50 value of T-47D cell proliferation by PROTAC compounds provided by the present invention and positive control sample
# AR protein [1] = molecular target: T1, AR protein (Homo sapiens, UniProt P10275, T878A); experiment: AR protein degradation in LNCaP cells (Western blot); settings: 8 hours
# T1 construct: host or cells: LNCaP FGC
# T1 sequence (P10275 1-920 T878A): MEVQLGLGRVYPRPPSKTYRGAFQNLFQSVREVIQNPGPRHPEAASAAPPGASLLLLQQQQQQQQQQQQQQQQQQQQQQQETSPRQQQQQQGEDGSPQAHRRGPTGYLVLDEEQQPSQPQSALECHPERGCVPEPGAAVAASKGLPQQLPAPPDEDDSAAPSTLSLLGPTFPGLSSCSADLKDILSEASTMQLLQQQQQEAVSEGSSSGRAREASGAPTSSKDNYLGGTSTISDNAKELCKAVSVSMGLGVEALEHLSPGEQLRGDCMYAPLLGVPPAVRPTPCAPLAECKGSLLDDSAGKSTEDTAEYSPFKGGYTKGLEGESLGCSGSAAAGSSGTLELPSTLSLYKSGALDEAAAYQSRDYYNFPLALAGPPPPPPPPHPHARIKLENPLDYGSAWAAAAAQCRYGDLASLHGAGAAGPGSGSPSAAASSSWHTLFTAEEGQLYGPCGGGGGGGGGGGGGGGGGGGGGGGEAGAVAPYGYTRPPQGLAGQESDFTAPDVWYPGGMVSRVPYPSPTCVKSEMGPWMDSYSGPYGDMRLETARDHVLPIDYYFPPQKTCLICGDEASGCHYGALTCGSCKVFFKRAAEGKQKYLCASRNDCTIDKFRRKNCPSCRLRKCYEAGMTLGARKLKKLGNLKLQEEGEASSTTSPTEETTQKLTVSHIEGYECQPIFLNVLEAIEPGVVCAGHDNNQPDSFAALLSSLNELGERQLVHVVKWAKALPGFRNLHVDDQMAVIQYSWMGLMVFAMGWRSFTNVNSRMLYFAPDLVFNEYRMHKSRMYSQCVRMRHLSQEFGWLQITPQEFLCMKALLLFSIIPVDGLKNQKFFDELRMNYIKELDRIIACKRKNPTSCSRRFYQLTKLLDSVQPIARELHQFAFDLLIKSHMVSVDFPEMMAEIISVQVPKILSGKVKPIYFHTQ
# Procedure: At the same time, the corresponding solvent control was set and cultured for 8 hours. After 8 hours of culture, the culture medium was removed, the cells were washed with PBS, and RIPA lysis buffer containing 1% Protease Inhibitor Cocktail was added. After lysis and centrifugation, the total protein extract was obtained, and the protein concentration in the extract was detected by BCA method. Protein electrophoresis was performed using SDS-PAGE, and then the protein was transferred to a PVDF (Millipore Sigma catalog number PSRP010R5) membrane at a constant voltage of 100V for 60 minutes. The PVDF membrane was placed in a 5% milk powder 1 ×TBST solution and blocked at room temperature for 1 hour. […] The primary antibody solution was discarded and the PVDF membrane was washed with 1×TBST for 5 minutes each time, for three times. […] The secondary antibody solution was discarded and the PVDF membrane was washed with 1 ×TBST for 5 minutes each time, for three times. A dual-color infrared laser imaging system (Licor catalog number Odyssey CLX) was used for Western membrane imaging. The Image Studio software was used to analyze the grayscale of the bands. GAPDH protein bands were also detected for each sample as the reference. The AR protein degradation rate of the compound and the positive control sample was calculated based on the grayscale of the protein bands.
# AR protein [2] = molecular target: T2, AR protein (Homo sapiens, UniProt P10275); experiment: AR protein degradation in VCaP cells (Western blot); settings: 8h
# T2 construct: host or cells: VCaP
# T2 sequence (P10275 1-920): T1 sequence (P10275 1-920 T878A) with A878T
# Procedure: The degradation activity of the compounds disclosed in the present invention on AR protein in VCaP cells (cell source: ATCC)
# The AR-positive human prostate cancer cells VCaP cultured in DMEM (GiBco catalog number 11995-065) containing 10% FBS (Hyclone catalog number SH30406.05) was inoculated in a six-well microplate (Thermo catalog number 140675) at a concentration of 3×10^5 cells/ well. After being cultured overnight in a carbon dioxide incubator (ESCO), the prepared compound of the present invention and the positive control sample ARV-766 (Annaiji) solution of different concentrations were added at a volume of 1 µL/well to make the final concentrations of the compound and the positive control sample reach 5nM and 0.5nM, respectively. At the same time, the corresponding solvent control was set and cultured for 8h. After 8h of culture, the culture medium was removed, and the cells were washed with PBS. RIPA lysis buffer containing 1% Protease Inhibitor Cocktail was added. After lysis and centrifugation, a total protein extract was obtained, and the protein concentration in the extract was detected by BCA method. Protein electrophoresis was performed using SDS-PAGE, and then the protein was transferred to a PVDF (Millipore Sigma catalog number PSRP010R5) membrane at a constant voltage of 100V for 60min. The PVDF membrane was placed in a 5% milk powder 1×TBST solution and blocked at room temperature for 1h. The primary antibody solution (Anti-Androgen receptor, Cell Signaling Technology catalog number: 5153S; 1:2000 dilution) was prepared and was incubated at 4°C overnight. The primary antibody solution was discarded and the PVDF membrane was washed with 1×TBST for 5 minutes each time, for three times. The secondary antibody solution (Thermo catalog number SA5-35571; 1:7500 dilution) was prepared and was incubated at room temperature for 1 hour. The secondary antibody solution was discarded and the PVDF membrane was washed with 1×TBST for 5 minutes each time, for three times. A dual-color infrared laser imaging system (Licor catalog number Odyssey CLX) was used for Western membrane imaging. Image Studio software was used to analyze the grayscale of the bands. GAPDH protein bands were also detected for each sample as the reference. The AR protein degradation rate of the compound and the positive control sample was calculated based on the grayscale of the protein bands.
# Table 7 Degradation rate of AR protein in VCaP cells by the compounds disclosed in the present invention
smiles,measurement,setting,value
"O=C1CCC(NC(=O)c2cc3c(cc2F)C2(CCN(CC4CCC(OC5CCN(c6ccc(C7c8ccc(O)cc8CCC7c7ccccc7)cc6)CC5)CC4)CC2)CO3)C(=O)N1 [ER-P-87, N-((S)-2,6-dioxopiperidin-3-yl)-5-fluoro-1'-(((1S,4R)-4-((1-(4-((1R,2S)-6-hydroxy-2-phenyl-1,2,3,4-tetrahydronaphthalen-1-yl)phenyl)piperidin-4-yl)oxy)cyclohexyl)methyl)-2H-spiro[benzofuran-3,4'-piperidine]-6-carboxamide]",IC50,MCF-7 cells,4000 nM
same,IC50,"T-47D cells; Homo sapiens, T47D, 144 h",53 nM
"Cn1c(=O)n(C2CCC(=O)NC2=O)c2ccc3c(c21)OCC31CCN(CC2CCN(c3ccc([C@@H]4c5ccc(O)cc5CC[C@@H]4c4ccccc4)cc3)CC2)CC1 (stereo partly drawn) [ER-P-73, 3-(1'-((1-(4-((1R,2S)-6-hydroxy-2-phenyl-1,2,3,4-tetrahydronaphthalen-1-yl)phenyl)piperidin-4-yl)methyl)-1-methyl-2-oxo-1,2-dihydro-3H,7H-spiro[benzofuro[6,7-d]imidazole-6,4'-piperidin]-3-yl)piperidine-2,6-dione]",IC50,MCF-7 cells,3270 nM
same,IC50,"T-47D cells; Homo sapiens, T47D, 144 h",49.4 nM
"CN(CC(=O)N1CCC2(CC1)CCC1(CC2)COc2c1ccc1c2CN(C2CCC(=O)NC2=O)C1=O)C1CCC2(CC1)CN(c1ccc([C@@H]3c4ccc(O)cc4CC[C@@H]3c3ccccc3)cc1)C2 (stereo partly drawn) [ER-P-71, 3-(1""-(N-(2-(4-((1R,2S)-6-hydroxy-2-phenyl-1,2,3,4-tetrahydronaphthalen-1-yl)phenyl)-2-azaspiro[3.5]nonan-7-yl)-N-methylglycyl)-6-oxo-6,8-dihydro-2H,7H-dipyridole[furo[2,3-e]isoindole-3,1'-cyclohexane-4',4""-piperidin]-7-yl)piperidine-2,6-dione]",IC50,MCF-7 cells,2020 nM
same,IC50,"T-47D cells; Homo sapiens, T47D, 144 h",8.54 nM
COc1cc(O[C@H]2C(C)(C)[C@H](NC(=O)c3ccc(N4CCC(CN5CCC6(CC5)COc5c6ccc6c5n(C)c(=O)n6C5CCC(=O)NC5=O)CC4)nn3)C2(C)C)ccc1C#N (relative stereo) [A-P-27],"Degradation of AR protein in LNCaP cells, 10 nM (%)",AR protein [1]; 10 nM,43%
same,"Degradation of AR protein in LNCaP cells, 100 nM (%)",AR protein [1]; 100 nM,43%
same,Degradation rate of AR protein in VCaP cells,AR protein [2]; 0.5 nM,78%
same,Degradation rate of AR protein in VCaP cells,AR protein [2]; 5 nM,80%
"O=C1CCC(Nc2ccc3c(c2)OCC32CCN(CC3CC(OC4CCN(c5ccc([C@@H]6c7ccc(O)cc7CC[C@@H]6c6ccccc6)cc5)CC4)C3)CC2)C(=O)N1 (stereo partly drawn) [ER-P-92, 3-((1'-(((1S,3s)-3-((1-(4-((1R,2S)-6-hydroxy-2-phenyl-1,2,3,4-tetrahydronaphthalen-1-yl)phenyl)piperidin-4-yl)oxy)cyclobutyl)methyl)-2H-spiro[benzofuran-3,4'-piperidin]-6-yl)amino)piperidine-2,6-dione]",IC50,T-47D cells,4.56 nM
"Cn1c(=O)n(C2CCC(=O)NC2=O)c2ccc3c(c21)OCC31CCN(CC2CC(OC3CCN(c4ccc([C@@H]5c6ccc(O)cc6CC[C@@H]5c5ccccc5)cc4)CC3)C2)CC1 (stereo partly drawn) [ER-P-80, 3-(1'-(((1S,3s)-3-((1-(4-((1R,2S)-6-hydroxy-2-phenyl-1,2,3,4-tetrahydronaphthalen-1-yl)phenyl)piperidin-4-yl)oxy)cyclobutyl)methyl)-1-methyl-2-oxo-1,2-dihydro-3H,7H-spiro[benzofuro[6,7-d]imidazole-6,4'-piperidin]-3-yl)piperidine-2,6-dione]",IC50,T-47D cells,0.9 nM
COc1cc(O[C@H]2CC[C@H](NC(=O)c3ccc(N4CCC5(CC4)CC(N4CCC6(CC4)COc4cc7c(cc46)n(C)c(=O)n7C4CCC(=O)NC4=O)C5)nn3)CC2)ccc1C#N (some centres unmarked) [A-P-11],percent AR protein degradation at a fixed concentration at 0.01 µM,AR protein [1]; 10 nM,76%
same,percent AR protein degradation at a fixed concentration at 0.1 µM,AR protein [1]; 100 nM,32%
